Entries after “also recorded” stand apart in the source; their conditions may differ. Values belong to the compound of their own block, whether it stands above or below them.
Columns and labels:
[1] = system: HUVEC; assay: Agonist-enhanced neutrophil adherence to HUVEC; type: cell-based, human; settings: 20 μmol/l, 1 hr pre-treatment, TNF 4 hr
Protocol: FIG. 11 is a representation showing effect of β-oxa; β-thia and natural PUFA on TNF-enhanced neutrophil adherence to HUVEC. HUVEC were pre-treated with the fatty acids (20 μmol/l) for 60 min at 37° C. before being stimulated with TNF (125 U/200 μl medium) for 4 hr at 37° C. The cells were then co-incubated with neutrophils (5×10^5 cells/well) at 37° C. for 30 min and the degree of neutrophil adherence quantitated. The results are expressed as % of control and represent the mean±SEM of three separate experiments each performed in triplicate. * p<0.05, ***p<0.001, for significant differences between pre-treatment with fatty acid and control (one-way analysis of variance followed by the Dunnett test for multiple comparisons).
Adhesion of neutrophils, prepared by the rapid-single-step method (Ferrante et al, J. Immun. Methods 36:109-117, 1980), to HUVEC isolated from umbilical cords was carried out essentially as described (Huang et al, 1997 supra).
The magnitude of the suppressive effect of -MP3 was dependent on-pre-treatment time and concentration with significant effects observed with a pre-treatment time of 1 hr and a concentration of ≧5 μmol/l.

[2] = system: IκBα; assay: TNF-induced degradation of IκBα in HUVEC (Western blot); type: cell-based; settings: Homo sapiens, 20 μmol/l, 30 min pre-treatment, TNF 10 min
Protocol: FIG. 17 is a representation showing (A) the effect of MP3 (β-oxa 23:4n-6) and DHA on TNF-induced degradation of IκBα in HUVEC. Cells were pre-treated with the fatty acids (20 μmol/l) for 30 min and then stimulated with TNF (125 U/ml) for 10 min. After cell lysis the proteins were analyzed by Western blots using anti-IκBα antibodies. (B) The effects of β-oxa-23:4n-6 on TNF-induced activation of transcriptional factor, NFκB in HUVEC. Cells were pre-treated with β-oxa-23:4n-6 (20 μmol/l) for 30 min and then stimulated with TNF for 2 hr. After cell lysis, nuclear fractions were prepared, nuclear proteins separated by SDS PAGE (12% w/v gel), transferred to nitrocellulose and probed with an anti-NFκB p65 antibody (Santa Cruz). […] (C) The effect of β-oxa 23:4n-6 on TNF-stimulated activation of IKK. Cells were pre-treated with β-oxa 23:4n-6 (20 μmol/l) for 30 min and then stimulated with TNF for 5 min. After cell lysis IKK was immunoprecipitated with anti-IKKα antibody and kinase activity determined. […]
Proteins (50 μg) were separated by SDS PAGE (12% w/v gel), transferred to nitrocellulose and probed with an anti-NFκB p65 or anti-IκBα antibody (Santa Cruz Biotech, Santa Cruz, Calif.). Immunocomplexes were detected by enhanced chemiluminescence (Hii et al, 1998 supra).

[3] = system: cancer cells; assay: Killing of cancer cells; type: cell-based
[4] = target: T1, PKC isozyme ε (Homo sapiens, UniProt Q02156); assay: PMA-induced PKC translocation in HL-60 cells (Western blot); type: cell-based; set-up: key: +++: strong inhibition of PKC activation; −: no inhibition of PKC activation; settings: 20 μM, 60 min
T1 construct: endogenous in cells; host or cells: HL-60
T1 sequence (Q02156 1-737): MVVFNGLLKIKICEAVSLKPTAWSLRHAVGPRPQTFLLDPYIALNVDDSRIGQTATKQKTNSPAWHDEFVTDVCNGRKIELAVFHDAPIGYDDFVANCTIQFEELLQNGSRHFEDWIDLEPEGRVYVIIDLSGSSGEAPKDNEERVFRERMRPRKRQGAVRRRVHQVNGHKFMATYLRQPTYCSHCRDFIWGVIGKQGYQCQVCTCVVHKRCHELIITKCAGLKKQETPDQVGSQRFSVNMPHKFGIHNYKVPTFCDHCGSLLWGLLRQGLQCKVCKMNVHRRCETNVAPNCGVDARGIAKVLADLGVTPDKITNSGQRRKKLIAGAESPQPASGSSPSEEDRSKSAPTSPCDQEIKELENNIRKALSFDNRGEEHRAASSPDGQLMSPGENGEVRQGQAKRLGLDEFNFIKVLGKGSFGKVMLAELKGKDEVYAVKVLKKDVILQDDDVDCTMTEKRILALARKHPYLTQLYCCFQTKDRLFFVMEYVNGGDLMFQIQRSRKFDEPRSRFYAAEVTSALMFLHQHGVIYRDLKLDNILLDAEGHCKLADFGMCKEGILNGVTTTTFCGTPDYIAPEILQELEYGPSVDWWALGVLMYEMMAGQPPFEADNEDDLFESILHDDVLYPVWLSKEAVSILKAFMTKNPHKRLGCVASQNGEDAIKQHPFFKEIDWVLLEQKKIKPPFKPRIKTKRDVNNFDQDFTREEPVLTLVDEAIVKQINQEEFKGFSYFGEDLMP
Protocol: (§1) The effects of nitroanalogs of PUFAs on PKC activation were determined. Lx compounds at a concentration of 20 μM were incubated with the HL-60 cell line (final condition 10^6 cells/ml) for 60 min. PKC activation was then attempted to be induced by PMA. PKC enzyme translocation was quantitated by Western blot.

[5] = target: T2, PKC isozyme α (Homo sapiens, UniProt P17252); assay: as above; type: cell-based; set-up: key: +++: strong inhibition of PKC activation; −: no inhibition of PKC activation; settings: 20 μM, 60 min
T2 construct: endogenous in cells; host or cells: HL-60
Protocol: as §1

[6] = target: T3, PKC isozyme β2 (Homo sapiens, UniProt P05771); assay: as above; type: cell-based; set-up: key: +++: strong inhibition of PKC activation; −: no inhibition of PKC activation; settings: 20 μM, 60 min
T3 construct: endogenous in cells; host or cells: HL-60
Protocol: as §1

[7] = target: T4, PKC isozyme δ (Homo sapiens, UniProt Q05655); assay: as above; type: cell-based; set-up: key: +++: strong inhibition of PKC activation; −: no inhibition of PKC activation; settings: 20 μM, 60 min
T4 construct: endogenous in cells; host or cells: HL-60
Protocol: as §1

[8] = system: neutrophil NADPH oxidase; assay: Neutrophil respiratory burst (NADPH oxidase activation, chemiluminescence); type: cell-based, human; settings: 20 μM, 10 min, lucigenin-dependent chemiluminescence
Protocol: The structure of PT2 is shown in (c) above. In this screening assay, neutrophils were prepared from the blood of healthy volunteers. Freshly collected blood was layered onto a Hypaque-Ficoll medium of density 1.114 and centrifuged at 400 g for 30 mins at room temperature. After centrifugation, the leukocytes resolved into two distinct bands, with neutrophils being present in the second band (Ferrante and Thong, J. Immun. Methods 48:81-85, 1982).
Activation of the neutrophil NADPH oxidase was measured by lucigenin-dependent chemiluminescence following a 10 min incubation of PT2 (20 μM, final concentration) with 1×10^6 neutrophils from different donors (Power et al, J. Immunol. 159:2952-2959, 1997). Arachidonic acid (20:4, n-6) was used as a positive stimulator of the oxidase
Neutrophil respiratory burst was determined as previously described (Li et al, J. Clin. Invest. 97:1605-1609, 1996).

[9] = Formalin-induced pain test (hind paw licking time); type: in vivo; settings: for % inhibition of pain response, Phase I (0-5 mins) / % inhibition of pain response, Phase II (15-20 mins): 30 min prior to formalin, mean of 5 animals
Protocol: (§2) Investigations of the effects of PT2 on pain induced by phenylquinolic acid (PQ writhing) and formalin have been made. In both the PQ writhing test (FIG. 3) and the formalin algesia test (FIG. 4), PT2 administered by intraperitoneal inoculation reduced pain and compared favourably with pain reduction by aspirin (oral, 100 mg/kg). In these tests, the EPUFA was administered 30 min before the pain stimulus and effects recorded over the following 20 min.
Investigations of PT2 in the formalin-induced analgesia model looking specifically at the biphasic response have also been undertaken and are shown in Table 1. It is well documented that in this model, aspirin suppresses only pain related to the inflammatory process (15-20 mins post-administration of formalin), while morphine suppresses pain in both phases of the response (0-5 min and 15-20 min).
Compounds were administered intraperationedly (ip) 30 min prior to the administration of formalin (0.02 ml, 1% solution) via subplantar injection into the right hind paw. Reduction of the induced hind paw licking time recorded during the following 0-5 min period (Phase I response) or 15-20 min period (Phase II response) was determined. The data in Table 1 are the mean responses of 5 animals in each group.

[10] = PQ (phenylquinolic acid) writhing test; type: in vivo; settings: intraperitoneal, 30 min before pain stimulus
Protocol: as §2

[11] = system: ICAM-1; assay: Adhesion molecule expression on HUVEC (ELISA); type: cell-based, human; settings: 20 μmol/l, 60 min pre-treatment
Protocol: (§3) FIG. 13 is a representation showing effect of MP3 (β-oxa-23:4n-6) and 20:4n-6 on time-related changes in TNF-α-induced E-selectin, ICAM-1 and VCAM-1 expression on HUVEC. HUVEC were pre-treated with 20 μmol/l β-oxa-23:4n-6 (closed triangles), 20 μmol/l 20:4n-6 (open squares), or DPC (control) for 60 min and then further incubated with TNF-α (125 U/200 μl medium) for up to 24 hr. The expression of E-selectin, ICAM-1 and VCAM-1 adhesion molecules was determined by ELISA. The results are expressed as % of control and represent the mean±SEM of three separate experiments each performed in triplicate. * p<0.05, **p<0.01, ***p<0.001, for significant differences between pre-treatment with fatty acid and corresponding control at a particular time point (one-way analysis of variance followed by the Dunnett test for multiple comparisons). Inset: The effect of β-oxa-23:4n-6 on TNF-α-induced expression of E-selectin mRNA in HUVEC. HUVEC were pre-incubated with β-oxa-23:4n-6 (20 μmol/l) or DPC (control) in 1 ml of medium at 37° C. for 60 min. After the addition of TNF-α, the cells were further incubated at 37° C. for 2 hr. E-selectin mRNA expression was then determined and the results expressed as relative %. Results are the mean±SEM of three separate experiments each performed in quadruplicate. *p<0.0001, for significant differences between pre-treatment with β-oxa-23:4n-6, and control (two-tailed Student's t-test for unpaired data).
(§4) HUVEC were stimulated with TNF, bacterial lipopolysaccharide (LPS) or PMA for 24 hr. Expression of E-selectin, ICAM-1 and VCAM-1 was determined by an enzyme-linked immunosorbent assay (ELISA) or as mRNA using a slot blot technique (Huang et al 1997 supra).

[12] = system: VCAM-1; assay: Adhesion molecule expression on HUVEC (ELISA); type: cell-based, human; settings: 20 μmol/l, 60 min pre-treatment
Protocol: as §3, §4

[13] = system: E-selectin; assay: Adhesion molecule expression on HUVEC (ELISA, mRNA slot blot); type: cell-based, human; settings: 20 μmol/l, 60 min pre-treatment
Protocol: as §3, §4

[14] = In vitro assays (not specified)

T3 sequence (P05771 1-673 isoform P05771-2): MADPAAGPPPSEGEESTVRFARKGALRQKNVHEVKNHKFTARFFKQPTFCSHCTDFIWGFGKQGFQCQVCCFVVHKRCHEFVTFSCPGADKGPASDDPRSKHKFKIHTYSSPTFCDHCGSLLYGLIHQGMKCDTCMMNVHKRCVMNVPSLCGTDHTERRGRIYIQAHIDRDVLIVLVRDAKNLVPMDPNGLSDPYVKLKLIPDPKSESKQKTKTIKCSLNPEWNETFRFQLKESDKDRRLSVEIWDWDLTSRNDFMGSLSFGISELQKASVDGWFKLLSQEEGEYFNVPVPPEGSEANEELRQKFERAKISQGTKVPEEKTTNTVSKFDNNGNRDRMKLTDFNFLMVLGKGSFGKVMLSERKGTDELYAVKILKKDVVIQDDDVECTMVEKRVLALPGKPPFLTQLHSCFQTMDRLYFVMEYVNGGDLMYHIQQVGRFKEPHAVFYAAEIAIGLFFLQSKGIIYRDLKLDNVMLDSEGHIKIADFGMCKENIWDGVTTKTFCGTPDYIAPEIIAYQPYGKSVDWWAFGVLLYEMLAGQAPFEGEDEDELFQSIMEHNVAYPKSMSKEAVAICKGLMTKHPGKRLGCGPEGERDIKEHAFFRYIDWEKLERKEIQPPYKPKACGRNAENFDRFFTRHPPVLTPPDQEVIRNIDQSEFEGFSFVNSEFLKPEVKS
T4 sequence (Q05655 whole entry): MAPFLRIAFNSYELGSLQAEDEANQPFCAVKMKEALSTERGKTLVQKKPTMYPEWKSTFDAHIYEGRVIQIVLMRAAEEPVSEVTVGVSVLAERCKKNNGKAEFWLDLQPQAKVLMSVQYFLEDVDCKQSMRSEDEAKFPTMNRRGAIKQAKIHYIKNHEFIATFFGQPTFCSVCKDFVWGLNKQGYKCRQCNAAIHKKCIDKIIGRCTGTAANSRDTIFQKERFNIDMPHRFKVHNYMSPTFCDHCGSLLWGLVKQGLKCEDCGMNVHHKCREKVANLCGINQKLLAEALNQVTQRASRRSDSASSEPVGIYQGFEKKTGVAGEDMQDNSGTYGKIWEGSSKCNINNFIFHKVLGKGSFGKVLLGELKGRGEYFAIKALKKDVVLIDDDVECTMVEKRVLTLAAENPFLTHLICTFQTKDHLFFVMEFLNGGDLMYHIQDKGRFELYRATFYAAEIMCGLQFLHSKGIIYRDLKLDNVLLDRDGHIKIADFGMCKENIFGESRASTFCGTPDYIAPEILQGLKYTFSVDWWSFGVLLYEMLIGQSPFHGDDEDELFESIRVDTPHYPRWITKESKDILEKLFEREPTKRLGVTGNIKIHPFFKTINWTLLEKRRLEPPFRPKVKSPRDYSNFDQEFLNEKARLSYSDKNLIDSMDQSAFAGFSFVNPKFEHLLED

Compound: CC/C=C\C/C=C\C/C=C\C/C=C\C/C=C\C/C=C\CCC(=O)O [22:6n-3, docosahexaenoic acid, reference compound]
Inhibition of TNF-α-enhanced neutrophil adhesion to HUVEC [1]: no significant effect
inhibition at 20 µM [2]: < 50%

Inhibition of PKC activation, isozyme ε [4]: +++
Inhibition of PKC activation, isozyme α [5]: +++
Inhibition of PKC activation, isozyme β2 [6]: +++
Inhibition of PKC activation, isozyme δ [7]: +++
Compound: CCCCCCCCCCCCCCCCCC(CCC(=O)O)(CCC(=O)O)[N+](=O)[O-] [Lx8]
Killing of cancer cells [3]: kills cells very poorly

Inhibition of PKC activation, isozyme α [5]: −
Inhibition of PKC activation, isozyme β2 [6]: +++
Compound: CCCCC/C=C\C/C=C\C/C=C\C/C=C\CCCC(CCC(=O)O)(CCC(=O)O)[N+](=O)[O-] [Lx9]
Killing of cancer cells [3]: strong in killing cancer cells

Compound: CCCCC/C=C\C/C=C\C/C=C\C/C=C\CCCC(=O)NC(CC(=O)O)C(=O)O (centres unmarked) [PT2]
Stimulation of the neutrophil respiratory burst [8]: lacks the ability to stimulate the neutrophil respiratory burst
% inhibition of pain response, Phase I (0-5 mins) ([9]; 30 mg/kg ip): 0%
% inhibition of pain response, Phase II (15-20 mins) ([9]; 30 mg/kg ip): 41%
% inhibition of pain response, Phase I (0-5 mins) ([9]; 100 mg/kg ip): 30%
% inhibition of pain response, Phase II (15-20 mins) ([9]; 100 mg/kg ip): 97%
Pain reduction in formalin test ([9]; intraperitoneal, 30 min before pain stimulus): reduced pain; also recorded: acts similarly to aspirin in having its major effect on the later phase of the pain response
Pain reduction in PQ writhing test [10]: reduced pain

Compound: CCCCC/C=C\C/C=C\C/C=C\C/C=C\CCCC(=O)O [arachidonic acid, reference compound]
Stimulation of the neutrophil respiratory burst [8]: able to elicit a strong respiratory burst
Suppression of TNF-α-induced ICAM-1 expression on HUVEC [11]: no significant effect
Suppression of TNF-α-induced VCAM-1 expression on HUVEC [12]: no significant effect
Inhibition of TNF-α-enhanced neutrophil adhesion to HUVEC [1]: no significant effect
Suppression of TNF-α-induced E-selectin expression on HUVEC [13]: no significant effect

Compound: β-oxa-23:0 [MP1]
Biological activity in in vitro assays [14]: biologically inactive

From patent publication US20090215895A1, “Therapeutic and carrier molecules” (PEPLIN BIOLIPIDS PTY LTD, priority 2004, published 2009)
